Earlier results on one molecule are cited in patent US20250262358A1, “SURGICAL SYSTEM AND METHODS OF USE” (MEDTRONIC, INC., priority 2021, published 2025).

For the series, the system named is myofibroblast formation. Conditions: animal studies of capsular contracture with breast implants; Ajmal et al. (2003).

In the case of `O=S(=O)([O-])CCS.[Na+]` [MESNA, sodium 2-mercaptoethane sulfonate], the myofibroblast formation result is recorded as “diminish myofibroblast formation”.
